Results as given in the NIST ThermoML archive (doi:10.1016/j.tca.2005.10.007).

Test: xn = mol fraction of the nth substance listed
Details: 101 kPa, Liquid, Vibrating tube method

CC(O)CN (stereo not drawn) [1-amino-2-propanol] + O
mass density [kg/m3]
Details	318.15 K	323.15 K	328.15 K	333.15 K	338.15 K	343.15 K	348.15 K	353.15 K
x2 = 0.0438	–	938.15	934	929.82	925.59	921.33	917.02	912.66
x2 = 0.0801	–	939.79	935.65	931.47	927.26	923	918.7	914.34
x2 = 0.1269	–	942.24	938.11	933.95	929.74	925.48	921.19	916.84
x2 = 0.1584	–	943.75	939.62	935.46	931.25	927	922.71	918.36
x2 = 0.2003	–	945.98	941.87	937.7	933.51	929.26	924.97	920.63
x2 = 0.2999	–	951.92	947.82	943.67	939.48	935.23	930.93	926.59
x2 = 0.3498	–	955.13	951.03	946.88	942.69	938.45	934.15	929.81
x2 = 0.3999	–	958.3	954.21	950.06	945.87	941.62	937.32	932.97
x2 = 0.4499	–	961.75	957.65	953.5	949.31	945.06	940.76	936.4
x2 = 0.4968	–	965.17	961.07	956.92	952.72	948.47	944.16	939.8
x2 = 0.5122	970.43	966.38	962.28	958.13	953.93	949.68	945.37	941.01
x2 = 0.5501	973.11	969.05	964.95	960.8	956.6	952.34	948.03	943.66
x2 = 0.6001	977.04	972.99	968.89	964.74	960.54	956.29	951.98	947.61
x2 = 0.6501	980.76	976.72	972.63	968.49	964.3	960.06	955.76	951.4
x2 = 0.7	984.34	980.34	976.28	972.17	968.01	963.8	959.53	955.2
x2 = 0.7501	987.6	983.67	979.68	975.64	971.55	967.4	963.19	958.92
x2 = 0.8	990.02	986.23	982.39	978.48	974.51	970.48	966.38	962.22
x2 = 0.84	991.29	987.71	984.06	980.33	976.53	972.66	968.72	964.71
x2 = 0.88	991.5	988.22	984.85	981.39	977.84	974.2	970.47	966.66
x2 = 0.92	990.94	988.05	985.04	981.92	978.68	975.33	971.88	968.33
x2 = 0.96	990.01	987.53	984.91	982.14	979.24	976.22	973.07	969.81
